Assays:
[1] = molecular target: T1, Aβ40 (Homo sapiens, UniProt P05067); assay: ITC binding of 6 with Aβ40
T1 construct: Ab40 ([…]-; purchased Peptide Institute, Inc. (Osaka, Japan)
Procedure: Distinct reactivities of 6 with metal-free Aβ and metal–Aβ were supported by various biophysical approaches. […] In the absence of Aβ, an increase or decrease in the absorption of the peaks at ca. 265, 300, 340, and 410 nm was monitored for 24 h (Fig. S18 ^†), which could be resulted from the oxidation of 6 in the presence of O2.[69] These spectral changes were accelerated upon incubation with Aβ, indicative of its impact on the oxidative modification of 6. Such transformation of 6 was also indicated in the presence of Cu(II) or Zn(II) with and without Aβ. To probe the interaction of 6 with Aβ, their binding properties were analyzed by isothermal titration calorimetry (ITC). For the association between 6 and Aβ, we recorded the heat change upon constant titration of the flavonoid into the solution of Aβ, where the dilution heat was also measured to avoid the heat change induced by its addition into the buffered solution. […] Thus, 6 can bind to Aβ with a micromolar binding affinity. […]
ITC. The solutions of Ab and 6 were subjected to degassing under vacuum for 3 min prior to loading into the instrument. […] […] The initial delay and the reference power were 60 s and 10 µcal/s, respectively. Dilution heat of 6 only was also measured under the same experimental conditions.
The ITC thermogram and binding isotherm were shown after the subtraction of the dilution heat.
The binding isotherm after baseline correction was fitted to the one-set-of-sites binding model using the MicroCal Origin software (version 7.0). […]

[2] = molecular target: T2, 15N-labeled Aβ40 (Homo sapiens, UniProt P05067); assay: 2D SOFAST-HMQC NMR with 15N-labeled Aβ40; format: binding; conditions: 15N-Aβ40 33 μM; 6 100 μM; 10 °C
T2 construct: AEDVG SNKGA IIGLM VGGVV; purchased rPeptide (Georgia, GA, USA)
T2 sequence (P05067 672-711 limits assumed): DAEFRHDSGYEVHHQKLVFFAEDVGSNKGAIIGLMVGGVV
Procedure: 2D 1H−15N SOFAST-HMQC NMR Experiments. […] To remove possible preformed aggregates, the lyophilized peptide was then redissolved in diluted NaOH (pH 10) and passed through a filter (0.22 µm). On the other hand, the stock solution of 15N-labeled Ab42 based on the previous report.27 Briefly, uniformly 15N-labeled Ab42 was solubilized in diluted NaOH (pH 10) at a concentration of ~200 µM. The undissolved precipitates of Ab42 were removed by centrifugation at 40,000 rpm for 1 h. The solution of 15N-labeled Ab (33 µM) was prepared with and without 6 (100 µM; 1% v/v DMSO) in 20 mM HEPES, pH 7.4 (10% v/v D2O) for NMR experiments. All spectra were acquired with 180 scans at 10 °C. Dimensions of the spectra were 1,024 (1H) ´ 128 (15N) points. Experimental data were processed with NMRpipe29 and Sparky 3.115.30 The 1H and 15N assignments of 15N-labeled Ab were determined based on the previous results.21,31 The chemical shift perturbation was calculated following the equation (eq 4).32 Note that DdH and DdN represent the alterations in the chemical shifts of 1H and 15N of 15N-labeled Ab, respectively.

T1 sequence (P05067 672-711 limits assumed): as above

Which Kd ([1]; one-set-of-sites model, 10 °C, read-out: Binding affinity) does the source give for `O=c1c(-c2ccc(O)c(O)c2)coc2cc(O)c(O)c(O)c12` [compound 6, 3-(3,4-dihydroxyphenyl)-5,6,7-trihydroxy-4H-chromen-4-one] here?
The Kd was ~20.5 µM.

What about the TΔS ([1]; pH 7.4, 10 °C) of the same molecule?
Its TΔS is 5.4 (±0.7) kcal mol^−1.

And the ΔG ([1]; pH 7.4, 10 °C)?
The ΔG was −6.0 (±0.5) kcal mol^−1.

And the ΔH ([1]; pH 7.4, 10 °C)?
The ΔH was −0.6 (±0.5) kcal mol^−1.

And the “decrease of overall NMR peak intensity” value [2]?
Its value is “ca. 10%”.

Source: article PMC10498667 (Chemical Science, 2023)
